pIC50: −log10 of the molar value. Read-outs that look alike come from different tables or passages of the source. Marks after values point to notes of the source that are not given here.
What was measured:
[1] = test system: taux cérébraux de sérotonine; test: Brain serotonin levels after administration (Curzon and Green method); type: in vivo
From the text: En particulier, les composés utilisés comme principes actifs des compositions pharmaceutiques de la présente invention, in vivo, ne provoquent pas de déplétion de sérotonine au niveau central. Le tableau II ci-dessous résume les taux cérébraux de sérotonine, en pourcentage par rapport aux contrôles, après administration orale ou intrapéritonéale de quatre ingrédients actifs des compositions pharmaceutiques de la présente invention. La détermination des taux cérébraux, selon Curzon et Green (Brit. J. Pharmacol. 39, 653, 1970), a été effectuée une heure et/ou deux heures après l'administration. La fenfluramine a été utilisée comme produit de référence.

[2] = Acute toxicity (DL50) in the rat; conditions: in vivo
From the text: (§1) Dans le tableau I sont reportés, pour cinq composés représentatifs utiles comme ingrédients actifs dans les compositions selon l'invention: • - la toxicité aiguë, exprimée comme DL50 chez le rat par voie orale ou par voie intrapéritonéale (donnée A); • - l'activité anorexigène, exprimée comme dose orale ou intrapéritonéale inhibant de 50% la prise de nourriture (DE50, donnée B); • - le rapport entre la toxicité aiguë et l'activité anorexigène qui exprime l'index thérapeutique lié à la toxicité aiguë (donnée A/B).

[3] = test system: prise de nourriture chez le rat; test: Anorectic activity, food intake method in the rat; type: in vivo; conditions: for A/B (index thérapeutique lié à la toxicité aiguë): DL50/DE50; for ED50: 1 h, rat, 30 minutes before food, food consumed in first hour, read-out: B DE50 (dose inhibant de 50% la prise de nourriture)
Description: L'activité anorexigène a été évaluée par la méthode de la prise de nourriture chez le rat. On a utilisé des rats femelles de 200 g entrainés pendant 10 jours à manger durant une période de 4 heures et sélectionnés au huitième jour. Au bout du dixième jour, les animaux randomisés ont été divisés en un "groupe contrôle", traité par le seul véhicule, et en plusieurs "groupes traités". Le traitement a été effectué par voie orale et/ou intrapéritonéale 30 minutes avant la présentation de la nourriture et, ensuite, on a mesuré la quantité de nourriture consommée au cours de la première heure.
as §1

[4] = target: récepteurs post-synaptiques de la sérotonine; test: 3H-serotonin binding to rat cortex membranes (Peroutka and Snyder method); conditions: fixed concentration of 3H-serotonin
From the text: L'affinité des composés de la présente invention pour les récepteurs post-synaptiques de la' sérotonine a été déterminée selon la méthode de Peroutka et Snyder (Molec. Pharmacol. 1979, 16, 687-699) qui consiste à incuber des membranes de cortex de rat avec une concentration fixée de ^3H-sérotonine en présence de différentes concentrations de produit. Le tableau III montre la concentration molare de trois ingrédients actifs représentatifs de la présente invention qui donne une inhibition de 50% du binding spécifique au récepteur sérotoninergique (IC50), à savoir la mesure de la capacité du produit d'intéragir avec la ^3H-sérotonine dans le binding à son récepteur. La fenfluramine et la 3-(3-trifluorométhylphényl)-1-propyl-1,2,5,6-tétrahydropyridine (Composé A), décrite par le brevet allemand 2 904 826, ont été utilisées comme composés de référence.

Structure (SMILES)	taux cérébraux de sérotonine % par rapport aux contrôles ([1]; i.p., 15 mg/kg, 1 h.)	taux cérébraux de sérotonine % par rapport aux contrôles ([1]; i.p., 15 mg/kg, 2 h.)	taux cérébraux de sérotonine % par rapport aux contrôles ([1]; i.p., 7,5 mg/kg, 2 h.)	LD50 ([2]; ip) [mg/kg]	LD50 ([2]; po, os) [mg/kg]	A/B (index thérapeutique lié à la toxicité aiguë) ([3]; i.p.)	ED50 ([3]; ip, i.p.) [mg/kg]	A/B (index thérapeutique lié à la toxicité aiguë) ([3]; os)	ED50 ([3]; po, os) [mg/kg]	taux cérébraux de sérotonine % par rapport aux contrôles ([1]; i.p., 30 mg/kg, 2 h.)	taux cérébraux de sérotonine % par rapport aux contrôles ([1]; os, 15 mg/kg, 2 h.)	taux cérébraux de sérotonine % par rapport aux contrôles ([1]; os, 7,5 mg/kg, 2 h.)	pIC50 [4]	taux cérébraux de sérotonine (result in words) ([1]; at anorectic doses)	taux cérébraux de sérotonine % par rapport aux contrôles ([1]; i.p., 5,0 mg/kg, 1 h.)	taux cérébraux de sérotonine % par rapport aux contrôles ([1]; i.p., 7,5 mg/kg, 1 h.)
FC(F)(F)c1cccc(C2=CCNCC2)c1 [CM 57235, chlorhydratede 4-(3-triflüorométhylphényl)-1,2,3,6-tétrahydropyridine]	106%	102%	112,0%	94.6	346	11,2	8.4	22	15.7	–	–	–	–	–	–	–
FC(F)(F)c1cccc(C2=CCN(Cc3ccccc3)CC2)c1 [CM 57451, chlorhydratede 4-(3-trifluorométhylphényl)-1-benzyl-1,2,3,6-tétrahydropyridine]	121,2%	112,0%	–	220	600	14,6	15	33,3	18	119,0%	–	–	–	–	–	–
CCCN1CC=C(c2cccc(C(F)(F)F)c2)CC1 [CM 57545, chlorhydratede 4-(3-trifluorométhylphényl)-1-propyl-1,2,3,6-tétrahydropyridine]	–	112%	103%	124	178	17,7	7	22,2	8	–	–	–	–	–	–	–
CN1CC=C(c2cccc(C(F)(F)F)c2)CC1 [CM 57548, chlorhydratede 4-(3-trifluorométhylphényl)-1-méthyl-1,2,3,6-tétrahydropyridine]	–	–	–	186	–	15,2	12.2	–	–	–	–	–	–	–	–	–
CCCCCN1CC=C(c2cccc(C(F)(F)F)c2)CC1 [CM 57756, chlorhydratede 4-(3-trifluorométhylphényl)-1-n-pentyl-1,2,3,6-tétrahydropyridine]	–	–	–	–	311	–	–	35,4	8.8	–	125 * %	138 ** %	–	–	–	–
CCNC(C)Cc1cccc(C(F)(F)F)c1 (stereo not drawn) [fenfluramine, reference compound]	–	–	53,1 ** %	85.6	100	15,8	5.4	25,1	4	–	–	–	< 5.00	réduction importante de sérotonine cérébrale	82,9 * %	81,6 * %
